Experimental data as given in patent US6242482A, “Prostaglandin compounds and derivatives thereof, compositions containing the same and method of using the same for the treatment of congestive heart failure” (priority 2000, dated 2001).
Where “and” joins values, the source holds several entries; their conditions need not be identical. Equal entries are not always repeated. Entries after “also recorded” stand apart in the source; their conditions may differ. Where two headings read alike, the source gives them in different places.

Tests used:
[1] = background; cited from earlier work
[2] = tested on: Human Platelet Aggregation (collagen-induced); test: Anti-aggregatory response after incubation with aqueous vehicle (Example 8); format: cell-based; settings: up to 4 hours at 37° C
Method: (§1) Blood from healthy human volunteers who had not taken any medicine for at least 14 days was collected by venopuncture into 3.15% (w/v) tri-sodium citrate (9:1 v/v). The blood was centrifuged at 800 g for 15 minutes to produce PRP. The PRP was further centrifuged at 12,000 g for 1 minute to produce PPP. A total of 12 volunteers donated blood for the study.
(§2) Platelet aggregation was studied using a dual channel Payton aggregometer calibrated with PRP (0%) and PPP (100%) with respect to the degree of light transmission. Aliquots of PRP (500 μl) were added to siliconized cuvettes, stirred (1000 revs/min) and warmed to 37° C. The platelets were incubated for 1 minute to establish a stable baseline prior to investigation. A submaximal concentration of the aggregating agent collagen (1 μg/ml) was added to the PRP and the platelet aggregation was monitored as the increase in light transmission observed over a 4 minute period.
(§3) After the incubation period, an aliquot of the PPP or aqueous vehicle (50 μl) was added to fresh PRP (450 μl) for determination of anti-platelet activity. This experiment was repeated using PPP from at least three human volunteers for each compound.

[3] = tested on: mean arterial pressure and heart rate of anesthetized rats; settings: for Time of second Δmax (superscript) / Time of Δmax (superscript) / t1/2 / Δmax (Mean Arterial Pressure) / Δmax, second value in parentheses: Table 5; for Mean Arterial Pressure: b338-b348 = 0,1,5,10,15,30,60,120,180,240,360 min
Method: Male Wistar rats (250-330 g) were anesthetized with thiopentone sodium (INTRAVAL®, 120 mg/kg i.p.). The trachea was cannulated to facilitate respiration. The right carotid artery was cannulated and connected to a pressure transducer (Spectramed P23XL), for the measurement of mean arterial pressure (MAP) and heart rate (HR) which were continuously recorded on a 4-channel Grass 7D polygraph recorder (Grass, Mass., U.S.A.). Body temperature was maintained at 37±1°C. by means of a rectal probe thermometer attached to a homeothermic blanket control unit (Harvard Apparatus Ltd.).

[4] = tested on: Human Platelet Aggregation (collagen-induced); test: Anti-aggregatory activity, 1 min incubation with PRP, collagen-induced (Example 8); format: cell-based; settings: 1 minute with PRP
Method: as §1, §2
The percentage inhibition of the platelet aggregation was calculated using the peak increase in light transmission observed over the 4 minute period following addition of collagen, as compared to that of control. This experiment was repeated using PRP from at least three human volunteers for each compound under study.

[5] = tested on: Human Platelet Aggregation (collagen-induced); test: Anti-aggregatory response after incubation with PPP (Example 8); format: cell-based
Method: as §1, §2, §3

[6] = tested on: mean arterial pressure and heart rate of anesthetized rats; test: Systemic hemodynamic effects, intravenous, anesthetized rats (Example 9); format: in vivo, rat (male Wistar)
Method: Among other effects, lowering of the blood pressure inside the blood vessels is beneficial for the treatment of congestive heart failure by reducing the vascular resistance of the blood flow which substantially reduces the work load imposed on the heart. […] This study involved the use of male Wistar rats anaesthetized with thiopentone sodium ([…]®, 120 mg kg^-1 i.p.). The trachea was cannulated to facilitate breathing.

**Q.** Which effective life [1] does the source give for CCCCC[C@H](O)/C=C/[C@@H]1[C@H]2C/C(=C/CCCC(=O)O)O[C@H]2C[C@H]1O [prostacyclin] here?
**A.** Its effective life is “less than six”.

**Q.** Which “effect of incubation with aqueous vehicle/saline/buffer on anti-platelet activity” value [2] does the source give for CCCCCC(CCC1C(OC(C)=O)CC2Cc3c(cccc3OCC(=O)O)CC21)OC(C)=O (stereo not drawn) [Compound 4, Compound X Diacetate] here?
**A.** The value was “This effect was also observed during incubation of the compound in saline”.

**Q.** What about the “effective life of the fall in MAP” value ([3]; 1 mg/kg s.c.) of the same molecule?
**A.** The value was greater than 300 min.

**Q.** And the “maximum fall in MAP” value ([3]; 1 mg/kg s.c.)?
**A.** Its value is “about 26 mm Hg”.

**Q.** What about the “time of maximum fall in MAP” value ([3]; 1 mg/kg s.c.) of the same molecule?
**A.** Its value is 60 min.

**Q.** And the “Time of second Δmax (superscript)” value ([3]; 1 mg/kg s.c.)?
**A.** The value was 210 min.

**Q.** What about the “Time of Δmax (superscript)” value ([3]; 1 mg/kg s.c.) of the same molecule?
**A.** Its value is 60 min.

**Q.** And the t1/2 ([3]; 1 mg/kg s.c.)?
**A.** The t1/2 was greater than 5 h.

**Q.** What about the “Δmax (Mean Arterial Pressure)” value ([3]; 1 mg/kg s.c.) of the same molecule?
**A.** The value was 26 ± 6 mm Hg.

**Q.** And the “Δmax, second value in parentheses” value ([3]; 1 mg/kg s.c.)?
**A.** Its value is 28 ± 7 mm Hg.

**Q.** And the “Mean Arterial Pressure” value ([3]; 1 mg/kg s.c.)?
**A.** The value was 87 ± 3 mm Hg and 94 ± 3 mm Hg.

**Q.** And the “another fall in MAP” value ([3]; 1 mg/kg s.c., second fall)?
**A.** The value was 28 mm Hg.

**Q.** And the “time of another fall in MAP” value ([3]; 1 mg/kg s.c., second fall)?
**A.** The value was 210 min.

**Q.** And the “effective life of the fall in MAP” value ([3]; 3 mg/kg s.c.)?
**A.** Its value is greater than 330 min.

**Q.** And the “Time of Δmax (superscript)” value ([3]; 3 mg/kg s.c.)?
**A.** Its value is 30 min.

**Q.** What about the t1/2 ([3]; 3 mg/kg s.c.) of the same molecule?
**A.** Its t1/2 is greater than 5.5 h.

**Q.** And the “Δmax (Mean Arterial Pressure)” value ([3]; 3 mg/kg s.c.)?
**A.** Its value is 41 mm Hg.

**Q.** And the “Mean Arterial Pressure” value ([3]; 3 mg/kg s.c.)?
**A.** Its value is 87 ± 4 mm Hg.

**Q.** What about the “effective life of the fall in MAP” value ([3]; 10 mg/kg s.c.) of the same molecule?
**A.** Its value is greater than 300 min.

**Q.** And the “Time of second Δmax (superscript)” value ([3]; 10 mg/kg s.c.)?
**A.** Its value is 150 min.

**Q.** What about the “Time of Δmax (superscript)” value ([3]; 10 mg/kg s.c.) of the same molecule?
**A.** Its value is 60 min.

**Q.** What about the t1/2 ([3]; 10 mg/kg s.c.) of the same molecule?
**A.** Its t1/2 is greater than 5 h.

**Q.** And the “Δmax (Mean Arterial Pressure)” value ([3]; 10 mg/kg s.c.)?
**A.** Its value is 45 ± 5 mm Hg.

**Q.** And the “Δmax, second value in parentheses” value ([3]; 10 mg/kg s.c.)?
**A.** Its value is 48 ± 6 mm Hg.

**Q.** And the “inhibiting aggregation by 50% concentration (IC50)” value [4]?
**A.** Its value is 68 ± 2 µg/mL.

**Q.** And the “inhibition of platelet aggregation, concentration dependence” value [4]?
**A.** The value was “concentration-dependent inhibition of platelet aggregation”.

**Q.** What about the “inhibition of aggregation response at highest concentrations” value ([4]; X 30 and 100 ng/ml, 4 300 μg/ml, 6 3 mg/ml, 7 10 mg/ml) of the same molecule?
**A.** The value was “completely inhibited the aggregation response”.

**Q.** What about the IC50 ([5]; after 15 minutes in PPP) of the same molecule?
**A.** The IC50 was 5 ± 0.2 µg/mL.

**Q.** And the “increase in anti-platelet activity” value ([5]; after 15 minutes in PPP)?
**A.** Its value is roughly 10 fold.

**Q.** And the “increase in activity on incubation with plasma or aqueous vehicle” value ([5]; initial ten (10) minute period, plasma or aqueous vehicle)?
**A.** The value was roughly 10 fold.

**Q.** And the “effect of incubation with PPP on anti-platelet activity” value ([5]; up to 4 hours at 37° C)?
**A.** Its value is “no further increase in activity; also recorded: this increase in activity was no greater after four (4) hours of incubation”.

**Q.** And the “effective life of the fall in MAP” value ([6]; 1 mg/kg i.v.)?
**A.** The value was “about 110 minutes”.

**Q.** And the “maximum fall in MAP” value ([6]; 1 mg/kg i.v.)?
**A.** Its value is “about 30 mm Hg”.

**Q.** And the “time of maximum fall in MAP” value ([6]; 1 mg/kg i.v.)?
**A.** The value was 30 min.

**Q.** What about the “effective life of the fall in MAP” value ([6]; comparison of Compound 4 with Compound X (1 mg/kg i.v.)) of the same molecule?
**A.** The value was “over 90 minutes”.

**Q.** And the “fall in MAP” value ([6]; i.v., Compound X 1 mg/kg, Compound 4 1-10 mg/kg, others 3-30 mg/kg)?
**A.** Its value is “rapid, dose-related fall in MAP; also recorded: rapid and substantial falls in MAP”.
